Columns and labels:
[1] = Kinetics of blood depletion and urine accumulation of chelates in the rat; assay type: in vivo; settings: average of three rats
Procedure: One half ml of Sm-DTPA (0.01 mg/kg), dissolved in saline (pH 7), is injected into the tail vein of three rats. Samples of blood are obtained at 10, 30 and 60 minutes following injection and analyzed for Sm-DTPA by neutron activation. The percent of starting amount of the Sm-DTPA at each time interval is presented in Table 18 (last column on right). Similarly, the accumulation of Sm-DTPA in the rat urine at two times is shown in the last column of Table 18.
One half ml of Technetium-99m-DTPA (1 millicurie), Gd-DTPA (0.05 mg/kg), and Sm-DTPA (0.01 mg/kg) are each dissolved in saline (pH 7), and are injected simultaneously into the tail vein of three rats. Samples of blood are obtained at 10, 30 and 60 minutes following injection and analyzed for ^99mTc-DTPA (gamma counting), Gd-DTPA (T1 relaxation) and Sm-DTPA (neutron activation).
One half ml of Sm-DTPA, La-DTPA and Eu-DTPA (each 0.01 mg/kg), dissolved in saline (pH 7) are injected simultaneously into the tail vein of three rats. Samples of blood are obtained at 10, 30 and 60 minutes following injection and analyzed for each element by neutron activation.
Samples of Sm-DTPA, La-DTPA and Eu-DTPA (0.5 ml; 0.01 mg/kg), each dissolved in saline (pH 7), are injected sequentially at 0, 20, and 40 minutes into the tail vein of three rats. Samples of blood are obtained at 10, 30 and 60 min following each injection and analyzed for each element by neutron activation.

[2] = Assay of chelate on carboxymethyl (CM) Sephadex column (chelate formation, charge); assay type: physicochemical; settings: for time within which the chelate forms: room temperature, Tris pH 7.5
Procedure: Preparation of carboxymethyl sephadex column. To two 10 ml plastic pipets cut off at the 3 ml mark and plugged with glass wool at the bottom add enough slurry to form a 2 ml volume of the CM sephadex. Wash the packed resin with 6 ml of 1 M Tris buffer pH 7.5, and 6 ml of 0.01M Tris buffer pH 7.5. […] Collect the eluants of fractions as follows. Fraction 1.3 ml of 0.01 M Tris buffer pH 7.5 and allow to drain into column. Fraction 2.1 ml of sample (gadolinium-DTPA or gadolinium chloride) and allow to drain into column. Apply 3 ml of 0.01 M Tris buffer pH 7.5 and allow to drain into column. Fraction 3.3 ml of 0.01M Tris buffer pH 7.5 and allow to drain into column. Dry all fractions at 70° C. for 76 hours, dissolve in 1 ml of 1 mM HCl and assay by atomic absorption.
(§1) Preparation of carboxymethyl Sephadex column. To two 10 ml plastic pipets which had been cut off at the 3 ml mark and plugged with glass wool at the bottom, enough slurry was added to form a 2 ml volume of the CM Sephadex. The packed resin was wash with 6 ml of 1 M Tris buffer pH 7.5, and 6 ml of 0.01M Tris buffer pH 7.5. […] Fractions were applied as follows. Fraction 1. Three ml of 0.01 M Tris buffer pH 7.5 and allow to drain into column. Fraction 2. One ml of sample (samarium-DTPA or samarium chloride) and allow to drain into column. Apply 3 ml of 0.01 M Tris buffer pH 7.5 and allow to drain into column. Fraction 3. Three ml of 0.01M Tris buffer pH 7.5 and allow to drain into column. Collect the eluant of fractions 1 through 3. Fraction 4. Column and contents.
as §1, with “were” for “had been”, “washed” for “wash”, “(lanthanum-DTPA” for “(samarium-DTPA”, “lanthanum” for “samarium”
as §1, with “were” for “had been”, “washed” for “wash”, “(Europium-DTPA” for “(samarium-DTPA”, “Europium” for “samarium”
Preparation of carboxymethyl sephadex column. To a 10 ml plastic pipet cut off at the 3 ml mark and plugged with glass wool at the bottom, add enough slurry to form a 2 ml volume of the CM sephadex. Wash the packed resin with 6 ml of 1 M Tris buffer pH 7.5, and 6 ml of 0.01M Tris buffer pH 7.5. […] Apply fractions as follows. Fraction 1. One ml of sample A and allow to drain into column.

[3] = Stability of chelates to autoclaving (CM-Sephadex assay); assay type: physicochemical; settings: for % of total / dpm: autoclaved 30 minutes at 121° C.
Procedure: A sample comprising 5 ml of Sm-DTPA, La-DTPA, and Eu-DTPA prepared in Examples 9, 10, and 11 were placed in 10 ml glass bottles, each capped with a grey butyl rubber cap, and the caps were crimped. Samples were autoclaved for 30 minutes at 121° C.
Five ml of each of Sm-DOTA, La-DOTA, and Eu-DOTA prepared in Examples 13, 14, and 15 were placed in 10 ml glass bottles capped with a grey butyl rubber cap and crimped. Samples were autoclaved for 30 minutes at 121° C. Samples were allowed to cool to room temperature and were assayed as described in Examples 25.

[4] = blood 10 min after i.v. injection, ^99mTc-DTPA, Gd-DTPA and Sm-DTPA simultaneously administered (Example 30)
[5] = blood 30 min, ^99mTc-DTPA, Gd-DTPA and Sm-DTPA simultaneously administered (Example 30)
[6] = blood 60 min, ^99mTc-DTPA, Gd-DTPA and Sm-DTPA simultaneously administered (Example 30)
[7] = urine 30 min, ^99mTc-DTPA, Gd-DTPA and Sm-DTPA simultaneously administered (Example 30)
[8] = urine 180 min, ^99mTc-DTPA, Gd-DTPA and Sm-DTPA simultaneously administered (Example 30)
[9] = Fraction 1: 3 ml 0.01M Tris pH 7.5 before sample
[10] = Fraction 2: 1 ml sample then 3 ml 0.01M Tris pH 7.5 (eluate)
[11] = Fraction 3: further 3 ml 0.01M Tris pH 7.5
[12] = Fraction 1: sample diluted 1:10 then 2-3 ml 0.01M Tris pH 7.5 (eluate)
[13] = Fraction 2: 3 ml 0.01M Tris pH 7.5
[14] = Fraction 3: column and contents (retained)
[15] = blood 10 min, Sm-DTPA, La-DTPA and Eu-DTPA (each 0.01 mg/kg i.v.) simultaneously administered (Example 31)
[16] = blood 10 min after each injection, Sm-DTPA, La-DTPA, Eu-DTPA (0.01 mg/kg i.v.) sequentially administered at 0, 20, 40 minutes (Example 32)
[17] = blood 30 min, Sm-DTPA, La-DTPA and Eu-DTPA simultaneously administered (Example 31)
[18] = blood 30 min after each injection, sequentially administered (Example 32)
[19] = blood 60 min, Sm-DTPA, La-DTPA and Eu-DTPA simultaneously administered (Example 31)
[20] = blood 60 min after each injection, sequentially administered (Example 32)
[21] = urine 30 min, Sm-DTPA, La-DTPA and Eu-DTPA simultaneously administered (Example 31)
[22] = urine 30 min, sequentially administered (Example 32)
[23] = urine 180 min, Sm-DTPA, La-DTPA and Eu-DTPA simultaneously administered (Example 31)
[24] = urine 180 min, sequentially administered (Example 32)
[25] = Fraction 4: column and contents (retained)

Row | Compound | Percent of initial injection, blood [1, 4] | Percent of initial injection, blood [1, 5] | Percent of initial injection, blood [1, 6] | Percent of initial injection, urine [1, 7] | Percent of initial injection, urine [1, 8] | % eluted from the CM-Sephadex column [2] | % of total [2, 9] | % of total [2, 10] | % of total [2, 11] | time within which the chelate forms [2] | % eluted from CM-Sephadex column following autoclaving [3] | % of total [3, 12] | dpm [3, 12] | % of total [3, 13] | dpm [3, 13] | % of total [3, 14] | dpm [3, 14] | Percent of initial injection, blood [1, 15] | Percent of initial injection, blood [1, 16] | Percent of initial injection, blood [1, 17] | also measured
1 | O=C([O-])CN(CCN(CC(=O)[O-])CC(=O)O)CCN(CC(=O)[O-])CC(=O)O.[Gd+3] [Gd-DTPA, Gd-diethylenetriaminepentaacetic acid] | 83% of initial injection | 65% of initial injection | 35% of initial injection | 22% of initial injection | 94% of initial injection | 100% | 0 % of total | 100 % of total | 0 % of total | ≤ 5 min | – | – | – | – | – | – | – | – | – | – | –
2 | O=C([O-])CN(CCN(CC(=O)[O-])CC(=O)[O-])CCN(CC(=O)[O-])CC(=O)[O-].[Sm+3] [Sm-DTPA] | 88% of initial injection | 60% of initial injection | 33% of initial injection | 26% of initial injection | 90% of initial injection | 98% | 0 % of total | 97 % of total | 1 % of total | ≤ 5 min | 100% | 98 % of total | 1128928 dpm | 2 % of total | 26387 dpm | 0 % of total | 1867 dpm | 83% of initial injection | 81% of initial injection | 61% of initial injection | Percent of initial injection, blood ([1]; blood 10 min, Sm-DTPA 0.01 mg/kg i.v. administered alone (Example 29)): 86% of initial injection; Percent of initial injection, blood ([1]; blood 30 min, Sm-DTPA 0.01 mg/kg i.v. administered alone (Example 29)): 61% of initial injection; Percent of initial injection, blood [1, 18]: 59% of initial injection; Percent of initial injection, blood ([1]; blood 60 min, Sm-DTPA 0.01 mg/kg i.v. administered alone (Example 29)): 28% of initial injection; Percent of initial injection, blood [1, 19]: 34% of initial injection; Percent of initial injection, blood [1, 20]: 29% of initial injection; Percent of initial injection, urine ([1]; urine 30 min, Sm-DTPA 0.01 mg/kg i.v. administered alone (Example 29)): 24% of initial injection; Percent of initial injection, urine [1, 21]: 22% of initial injection; Percent of initial injection, urine [1, 22]: 20% of initial injection; Percent of initial injection, urine ([1]; urine 180 min, Sm-DTPA 0.01 mg/kg i.v. administered alone (Example 29)): 91% of initial injection; Percent of initial injection, urine [1, 23]: 90% of initial injection; Percent of initial injection, urine [1, 24]: 89% of initial injection; dpm [2, 9]: 0 dpm; dpm [2, 10]: 148208 dpm; dpm [2, 11]: 19089 dpm; % of total [2, 25]: 2 % of total; dpm [2, 25]: 24257 dpm
3 | O=C([O-])CN(CCN(CC(=O)[O-])CC(=O)[O-])CCN(CC(=O)[O-])CC(=O)[O-].[La+3] [La-DTPA] | – | – | – | – | – | 100% | 0 % of total | 100 % of total | 0 % of total | ≤ 5 min | 100% | 97 % of total | 411400 dpm | 3 % of total | 12180 dpm | 0 % of total | 0 dpm | 85% of initial injection | 82% of initial injection | 63% of initial injection | Percent of initial injection, blood [1, 18]: 62% of initial injection; Percent of initial injection, blood [1, 19]: 33% of initial injection; Percent of initial injection, blood [1, 20]: 32% of initial injection; Percent of initial injection, urine [1, 21]: 23% of initial injection; Percent of initial injection, urine [1, 22]: 25% of initial injection; Percent of initial injection, urine [1, 23]: 92% of initial injection; Percent of initial injection, urine [1, 24]: 95% of initial injection; dpm [2, 9]: 0 dpm; dpm [2, 10]: 489692 dpm; dpm [2, 11]: 0 dpm; % of total [2, 25]: 0 % of total; dpm [2, 25]: 0 dpm
